e = 2'-O-(2-methoxyethyl) (MOE); d = 2'-deoxy (DNA)
Legend:
[1] = system: ApoA1; test: Liver ApoA1 mRNA expression (Example 9); type: in vivo, mice; settings: s.c. 6 weeks; for Percent inhibition of liver mRNA expression, ApoA1: percentage increase or decrease compared to PBS control
Description: Another group received subcutaneous injections of control oligonucleotide ISIS 141923 at a dose of 50 mg/kg/week for 6 weeks. One group of mice received subcutaneous injections of PBS for 6 weeks. The PBS-injected group served as the control group to which treatment groups were compared.
Liver RNA was isolated for real-time PCR analysis of ABCA1, ApoAI, and SR-B1. ATP-binding cassette transporter ABCA1 (member 1 of human transporter sub-family ABCA), also known as the cholesterol efflux regulatory protein (CERP) is a protein which in humans is encoded by the ABCA1 gene (Luciani, M. F. et al., Genomics. 1994. 21: 150-9). This transporter is a major regulator of cellular cholesterol and phospholipid homeostasis. Apolipoprotein A-I is a protein that in humans is encoded by the APOA1 gene (Breslow, J. L. et al., Proc. Natl. Acad. Sci. USA 1982. 79: 6861-5). Apolipoprotein A-I is the major protein component of HDL in plasma. The protein promotes cholesterol efflux from tissues to the liver for excretion. Scavenger receptor class B, type I (SR-BI) is an integral membrane protein found in numerous cell types/tissues, including the liver and adrenal (Acton, S. L. et al., J. Biol. Chem. 1994. 269: 21003-21009). It is best known for its role in facilitating the uptake of cholesteryl esters from high-density lipoproteins in the liver. Therefore, all three genes have a role in HDL regulation.
The primer probe set RTS1204 (forward sequence […], designated herein as SEQ ID NO: 122, reverse sequence […], designated herein as SEQ ID NO: 123, probe sequence AGGCCCAGACCTGTAAAGGCGAAGX, with X a fluorophore, designated herein as SEQ ID NO: 124) was used to measure abca1 levels. The primer probe set RTS14737 (forward sequence […], designated herein as SEQ ID NO: 125, reverse sequence […], designated herein as SEQ ID NO: 126, probe sequence CTGCAGGAACGGCTGGGCCCX, with X a fluorophore, designated herein as SEQ ID NO: 127) was used to measure apoA1 levels. The primer probe set mSRB-1 (forward sequence […], designated herein as SEQ ID NO: 128, reverse sequence ATGCGACTTGTCAGGCTGG, designated herein as SEQ ID NO: 129, probe sequence CGTGGAGAACCGCAGCCTCCATTX, with X a fluorophore, designated herein as SEQ ID NO: 130) was used to measure sr-b1 levels. The results are presented in Table 44 as percentage increase or decrease in the respective expression levels compared to the PBS control. Both primer probe sets produced similar results. The RNA expression levels were normalized to murine Cyclophilin. Treatment with ISIS 349517 caused an increase in ApoA1 and SR-B1 levels.

[2] = system: CETP protein; test: Plasma CETP protein by ELISA in huCETP transgenic mice (Example 5); type: in vivo, human; settings: normal chow, 50 mg/kg i.p. twice per week for 6 weeks, compared to PBS control
Description: The mice were divided into five treatment groups. The first four groups received intraperitoneal injections of ISIS 349511, ISIS 349512, ISIS 349515, or ISIS 349517 at a dose of 50 mg/kg twice per week for 6 weeks. The fifth group received intraperitoneal injections of saline twice weekly for 6 weeks.
Plasma levels of CETP protein were measured by ELISA (Alpco, N.H.). […] The results are expressed as percentage inhibition compared to the PBS control.

[3] = system: human CETP mRNA; test: Liver CETP mRNA in huCETP transgenic mice, normal or cholesterol-enriched chow (Example 6); type: in vivo; settings: 50 mg/kg s.c. twice per week for 6 weeks, relative to PBS control
Description: Male huCETP transgenic mice were maintained on a 12-hour light/dark cycle. One group of mice was fed ad libitum normal Purina mouse chow and a second group was fed 0.5% cholesterol-enriched chow (Harlan Teklad TD.97234, Harlan Laboratories, Indianapolis, Ind.). Animals were acclimated for at least 7 days in the research facility before initiation of the experiment. Antisense oligonucleotides (ASOs) were prepared in buffered saline (PBS) and sterilized by filtering through a 0.2 micron filter. Oligonucleotides were dissolved in 0.9% PBS for injection.
(§1) The normal chow-fed mice were divided into three treatment groups. The cholesterol-enriched chow-fed mice were divided into three treatment groups. […] One chow-fed group and one cholesterol-enriched chow-fed group received subcutaneous injections of saline twice weekly for 6 weeks. The saline-injected groups served as the control groups to which the corresponding oligonucleotide-treated groups were compared.
Twenty four hours after the final dose, the animals were sacrificed and liver tissue was isolated. Liver RNA was isolated for real-time PCR analysis of CETP. The primer probe set hCETP was used to measure CETP levels. As presented in Table 16, treatment with antisense oligonucleotides reduced CETP mRNA expression. The RNA expression levels were normalized to murine Cyclophilin. The results are expressed as percent inhibition of CETP mRNA, relative to the PBS control. There was no difference in inhibition of CETP mRNA levels in normal chow-fed and cholesterol-enriched chow fed mice.

[4] = Liver function, plasma ALT and AST (Example 6); type: in vivo, mice; settings: 50 mg/kg s.c. twice per week
From the text: as §1
Plasma concentrations of ALT (alanine transaminase) and AST (aspartate transaminase) at weeks 0, 3 and 6 were measured and the results are presented in Tables 18 and 19 expressed in IU/L.

[5] = Plasma glucose (Example 6); type: in vivo, mice; settings: 50 mg/kg s.c. twice per week
Description: as §1
Plasma glucose values were determined using a Beckman Glucose Analyzer II (Beckman Coulter) by a glucose oxidase method (Lott, J. A. et al., Clin. Chem. 21: 1754-1760, 1975).

[6] = system: CETP activity; test: CETP activity assay kit (Example 8); type: in vivo, human; settings: huCETP transgenic mice, Western diet; 25 mg/kg s.c. twice per week for 2 weeks; relative to PBS control
Description: The mice were divided into two groups of 4-6 mice each.
CETP activity levels were measured using a CETP activity assay kit (Roar Biomedical Inc., New York, N.Y.). […] The results are expressed as percent inhibition of CETP activity, relative to the PBS control.

Row | Substance | Percent inhibition of liver mRNA expression, ApoA1 ([1]; Dose 50 mg/kg/wk) | Percent inhibition of plasma CETP protein levels [2] [%] | Percent inhibition of liver CETP mRNA expression ([3]; Cholesterol chow) [%] | Percent inhibition of liver CETP mRNA expression ([3]; Normal chow) [%] | Alanine transaminase levels ([4]; Cholesterol chow, Week 0) [IU/L] | Aspartate transaminase levels ([4]; Cholesterol chow, Week 0) [IU/L] | Alanine transaminase levels ([4]; Cholesterol chow, Week 3) [IU/L] | Aspartate transaminase levels ([4]; Cholesterol chow, Week 3) [IU/L] | Alanine transaminase levels ([4]; Cholesterol chow, Week 6) [IU/L] | Aspartate transaminase levels ([4]; Cholesterol chow, Week 6) [IU/L] | Alanine transaminase levels ([4]; Normal chow, Week 0) [IU/L] | Aspartate transaminase levels ([4]; Normal chow, Week 0) [IU/L] | Alanine transaminase levels ([4]; Normal chow, Week 3) [IU/L] | Aspartate transaminase levels ([4]; Normal chow, Week 3) [IU/L] | Alanine transaminase levels ([4]; Normal chow, Week 6) [IU/L] | Aspartate transaminase levels ([4]; Normal chow, Week 6) [IU/L] | Glucose levels ([5]; Cholesterol chow, Week 0) [mg/dL] | Glucose levels ([5]; Cholesterol chow, Week 3) [mg/dL] | Glucose levels ([5]; Cholesterol chow, Week 6) [mg/dL] | Glucose levels ([5]; Normal chow, Week 0) [mg/dL] | also measured
1 | ISIS 141923: CCTTCCCTGAAGGTTCCTCC, 5-10-5 MOE gapmer, a control oligonucleotide which has no known murine target (sugars from the 5' end e5 d10 e5, backbone and methylation of C not given here) [reference compound] | −50% |  |  |  |  |  |  |  |  |  |  |  |  |  |  |  |  |  |  |  | 
2 | ISIS 349511: 5-10-5 MOE gapmer CCCGACCTCCTTGGAGACTT (sugars from the 5' end e5 d10 e5, backbone and methylation of C not given here) |  | 75 | 88 | 89 | 28 | 49 | 28 | 44 | 66 | 123 | 16 | 89 | 22 | 47 | 22 | 81 | 238 | 289 | 225 | 239 | Glucose levels ([5]; Normal chow, Week 3): 288 mg/dL; Glucose levels ([5]; Normal chow, Week 6): 206 mg/dL
3 | ISIS 349517: 5-10-5 MOE gapmer CAGCACTTTAATGCCAGTGG (sugars from the 5' end e5 d10 e5, backbone and methylation of C not given here) | +136% | 86 | 98 | 95 | 19 | 54 | 56 | 72 | 76 | 113 | 17 | 75 | 24 | 61 | 158 | 196 | 277 | 245 | 240 | 263 | Glucose levels ([5]; Normal chow, Week 3): 257 mg/dL; Glucose levels ([5]; Normal chow, Week 6): 211 mg/dL; Percent inhibition of CETP activity [6]: 73%; ApoA1 levels (liver mRNA) ([1]; huCETP transgenic mice, Western diet): increase; Percent inhibition of liver mRNA expression, ApoA1 ([1]; Dose 1.5 mg/kg/wk): −34%; Percent inhibition of liver mRNA expression, ApoA1 ([1]; Dose 5 mg/kg/wk): −13%; Percent inhibition of liver mRNA expression, ApoA1 ([1]; Dose 15 mg/kg/wk): +52%

Reference: patent US20130053430A1, “MODULATION OF CETP EXPRESSION” (Isis Pharmaceuticals, Inc., priority 2010, published 2013)
